Experimental data: US12336991B2, “Factor XIIA inhibitors” (UNIVERSITY OF LEEDS, priority 2018, dated 2025)

Key:
Format in all cases: biochemical
[1] = target: T1, thrombin (Homo sapiens, UniProt P00734); assay: Determination of selectivity: thrombin inhibition, chromogenic substrate GPR assay; settings: fold selectivity for FXIIa over thrombin
T1 construct: FXa (5 nM) and thrombin (5 nM)
Experimental: (§1) The activities of the compounds of the invention have been determined in vitro using the following assays protocols for the screening of activity of FXIIa and other proteases. Each of these assays were performed in a purified system employing the use of chromogenic assays in microplate plate wells. Chromogenic peptide substrates mimicking natural protein substrates are attached via an amide bond to a chromogenic group. Paranitroaniline (pNA) is released from the peptide following catalyses by the proteolytic enzyme; the absorbance increases and can be monitored at 405 nm.
(§2) All compounds were dissolved in 100% (v/v) DMSO to a stock concentration of 10 mM, the highest concentration of compound used in each assay is 500 μM. The final concentrations of DMSO were 5% (v/v) in 50 mM Tris 137 mM NaC pH 7.4. Where no test compound was added a final concentration of 5% DMSO was employed.
(§3) Determination of Selectivity
(§4) To determine selectivity of test compounds, these test compounds were assayed for inhibitory activity against other serine proteases including FXa and thrombin. Essentially compounds at increasing concentrations were incubated with each enzyme: FXa (5 nM) and thrombin (5 nM), for 10 mins at 37° C. followed the appropriate chromogenic substrate, S2765 ([…]), and GPR ([…]) respectively in 50 mM Tris, 137 mM NaCl, pH 7.4. Chromogenic substrates S2765 was from Chromogenix, and GPR from Bachem. Kinetic readings at 405 nm were monitored every 12 secs for a total duration of 3 hours at 37° C. Gradients of initial rates were determined and employed to calculate IC50 values. Values of IC50 were converted to Ki values based on the formula: Ki=IC50/(1+[Substrate]/Km)
(§5) Where [Substrate] denotes the concentration of substrate used in the assay and Km is the determined value of each enzyme with its own substrate.
(§6) The fold selectivity for FXIIa over thrombin for the compounds of the invention has been categorised based on the fold selectivity values, the categories being “+”, “++” and “+++”. The category “+” refers to fold selectivity values less than 10. The category “++” refers to a fold selectivity value of 10 to 100. The category “+++” refers to fold selectivity values greater than 100.

[2] = target: T2, FXIIa (Homo sapiens, UniProt P00748); assay: Determination of Factor XIIa inhibition, chromogenic substrate S-2302 assay; settings: human FXIIa alpha
T2 sequence (P00748 373-615 limits assumed): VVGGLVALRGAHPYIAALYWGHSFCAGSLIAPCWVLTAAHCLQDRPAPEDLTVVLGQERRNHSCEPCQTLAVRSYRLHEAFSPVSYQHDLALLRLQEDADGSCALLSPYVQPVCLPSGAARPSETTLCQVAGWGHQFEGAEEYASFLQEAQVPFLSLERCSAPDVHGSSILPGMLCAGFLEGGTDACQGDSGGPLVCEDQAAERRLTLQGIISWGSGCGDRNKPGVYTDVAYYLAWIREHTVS
T2 sequence (P00748 20-372 partner limits assumed): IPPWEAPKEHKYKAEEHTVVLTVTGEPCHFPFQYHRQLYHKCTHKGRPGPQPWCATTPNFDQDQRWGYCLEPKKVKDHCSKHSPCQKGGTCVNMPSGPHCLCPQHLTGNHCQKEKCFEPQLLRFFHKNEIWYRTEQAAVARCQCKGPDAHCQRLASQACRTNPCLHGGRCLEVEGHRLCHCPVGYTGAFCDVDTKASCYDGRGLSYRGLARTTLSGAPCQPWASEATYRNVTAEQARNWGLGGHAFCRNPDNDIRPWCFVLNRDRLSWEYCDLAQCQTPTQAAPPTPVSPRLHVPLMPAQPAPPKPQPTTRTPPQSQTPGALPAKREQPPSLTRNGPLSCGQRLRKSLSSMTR
Experimental: as §1, §2
Determination of Factor XIa Inhibition
Factor XIa activity was measured using a chromogenic substrate S-2302 (Chromogenix). Various concentrations of compound were incubated with 10 nM of FXIIa and incubated at 37° C. for 10 minutes in 50 mM Tris, 137 mM NaCl, pH 7.4, prior to the addition of a final concentration of 450 µM S-2302 chromogenic substrate. Kinetic readings at 405 nm were monitored every 12 secs for a total duration of 3 hours at 37° C. Gradients of initial rates were determined and employed to calculate IC50 values. Values of IC50 were converted to Ki values based on the formula: Ki=IC50/(1+[Substrate]/Km).
The activity of the compounds of the invention has been categorised based on the Ki values, the categories being “*”, “**” and “***”. […] The category “**” refers to compounds with a Ki value of 0.2 μM to 2 μM.

[3] = target: FXa (Homo sapiens, UniProt P00742); assay: Determination of selectivity: FXa inhibition, chromogenic substrate S2765 assay; settings: fold selectivity for FXIIa over FXa
Experimental: as §1, §2, §3, §4, §5, §6
The fold selectivity for FXIIa over FXa for the compounds of the invention has been categorised based on the fold selectivity values, the categories being “o”, “oo” and “ooo”. The category “o” refers to fold selectivity values less than 10. The category “oo” refers to a fold selectivity value of 10 to 100. The category “ooo” refers to fold selectivity values greater than 100.

Sequence of FXa (P00742 235-488 limits assumed): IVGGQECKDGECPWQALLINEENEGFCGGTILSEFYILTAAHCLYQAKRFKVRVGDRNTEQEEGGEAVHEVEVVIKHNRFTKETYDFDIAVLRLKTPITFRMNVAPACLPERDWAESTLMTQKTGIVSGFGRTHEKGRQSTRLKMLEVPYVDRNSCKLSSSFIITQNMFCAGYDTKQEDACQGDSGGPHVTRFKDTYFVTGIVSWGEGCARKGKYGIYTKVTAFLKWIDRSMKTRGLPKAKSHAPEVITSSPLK
Sequence of FXa (P00742 41-179 partner limits assumed): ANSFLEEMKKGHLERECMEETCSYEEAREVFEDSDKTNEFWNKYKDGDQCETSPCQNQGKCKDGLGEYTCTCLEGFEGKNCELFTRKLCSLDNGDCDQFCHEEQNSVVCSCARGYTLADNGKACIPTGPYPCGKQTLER

SMILES	Thrombin (human)/FXIIa alpha (human) [1]	Ki [2] [nM]	FXa (human)/FXIIa alpha (human) [3]
Nc1cc(CNC(=O)[C@@H]2C[C@@](O)(c3ccc(F)c(F)c3)CN2C(=O)[C@H](N)CCc2ccccc2)ccn1 [Example M05127]	++ (fold selectivity value of 10 to 100)	200 to 2000	∘∘
Cn1nnc2cc(CNC(=O)[C@@H]3C[C@@](O)(c4ccc(F)c(F)c4)CN3C(=O)[C@H](N)CCc3ccccc3)ccc21 [Example M05128]	++ (fold selectivity value of 10 to 100)	> 2000	∘∘
NCc1ccc(CNC(=O)[C@@H]2C[C@@H](Cc3cccc(Cl)c3)CN2C(=O)[C@H](N)CCc2ccccc2)cc1 [Example M05130]	++ (fold selectivity value of 10 to 100)	200 to 2000	∘∘∘
Cn1nnc2cc(CNC(=O)[C@@H]3C[C@H](C(F)(F)F)CN3C(=O)[C@H](N)CCC(=O)N3CCCC3)ccc21 [Example M05139]	+++ (fold selectivity values greater than 100)	> 2000	∘∘∘
CC(=O)N[C@H]1C[C@@H](C(=O)NCc2ccnc(N)c2)N(C(=O)[C@H](N)CCc2ccccc2)C1 [Example M05141]	+ (fold selectivity values less than 10)	> 2000	∘
Nc1cc(CNC(=O)[C@@H]2C[C@H](NC(=O)c3ccccc3)CN2C(=O)[C@H](N)CCc2ccccc2)ccn1 [Example M05142]	+ (fold selectivity values less than 10)	200 to 2000	∘∘
Cn1nnc2cc(CNC(=O)[C@@H]3C[C@H](N)CN3C(=O)[C@H](N)CCc3ccccc3)ccc21 [Example M05143]	++ (fold selectivity value of 10 to 100)	> 2000	∘∘
Cn1nnc2cc(CNC(=O)[C@@H]3C[C@@H](c4ccccc4)CN3C(=O)[C@H](N)CCC(=O)N3CCCC3)ccc21 [Example M05155]	+++ (fold selectivity values greater than 100)	200 to 2000	∘∘∘
NCc1ccc(CNC(=O)[C@@H]2C[C@@H](Cc3ccncc3)CN2C(=O)[C@H](N)CCc2ccccc2)cc1 [Example M05156]	+ (fold selectivity values less than 10)	200 to 2000	∘∘∘
Cn1nnc2cc(CNC(=O)[C@@H]3C[C@H](c4ccc(F)cc4)CN3C(=O)[C@H](N)CCc3ccccc3)ccc21 [Example M05157]	++ (fold selectivity value of 10 to 100)	> 2000	∘∘
Cn1nnc2cc(CNC(=O)[C@@H]3C[C@H](NCc4ccccc4)CN3C(=O)[C@H](N)CCc3ccccc3)ccc21 [Example M05158]	++ (fold selectivity value of 10 to 100)	> 2000	∘∘
Cn1nnc2cc(CNC(=O)[C@@H]3C[C@H](NCc4cccc(C(F)(F)F)c4)CN3C(=O)[C@H](N)CCc3ccccc3)ccc21 [Example M05159]	++ (fold selectivity value of 10 to 100)	> 2000	∘∘
Cn1nnc2cc(CNC(=O)[C@@H]3C[C@H](NCc4ccc(Cl)cc4)CN3C(=O)[C@H](N)CCc3ccccc3)ccc21 [Example M05160]	++ (fold selectivity value of 10 to 100)	> 2000	∘∘
CC(=O)N(Cc1ccccc1)[C@H]1C[C@@H](C(=O)NCc2ccc3c(c2)nnn3C)N(C(=O)[C@H](N)CCc2ccccc2)C1 [Example M05161]	++ (fold selectivity value of 10 to 100)	> 2000	∘∘
CC(=O)N(Cc1cccnc1)[C@H]1C[C@@H](C(=O)NCc2ccc3c(c2)nnn3C)N(C(=O)[C@H](N)CCc2ccccc2)C1 [Example M05162]	++ (fold selectivity value of 10 to 100)	> 2000	∘∘
